# Laboratory results from PubChem BioAssay AID1959 (Broad Institute, 2009).
# Activity calls are given as the source filed them.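 The calls were made as follows: active = growth-inhibition EC50 no more than tenfold above the top tested dose; inconclusive = flat fit between 30% and 70% inhibition, or unreliable fit; inactive = EC50 more than tenfold above the top tested dose.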
# Test system: E. coli NEB5alpha growth, BacTiter-Glo luminescence, 4 h
# Test: Escherichia coli growth inhibition, dose response, counter-screen for MEX-5/POS-1 RNA-binding inhibitor project, luminescence, NEB5alpha (AID 1959);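 also: pUC19-transformed ampicillin-resistant cells grown in LB with ampicillin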
row,SMILES,EC50
1,Cc1cc(N2C(=O)C(O)=C(C(=O)c3cc4ccccc4o3)C2c2ccc([N+](=O)[O-])cc2)no1 (stereo not drawn),> 11 µM (inactive)
2,CCN1CCN(Cc2c(C(=O)N/N=C(\C)c3ccc(Cl)cc3)nnn2-c2nonc2N)CC1,> 11 µM (inactive)
3,N=c1c(S(=O)(=O)c2ccc(Cl)cc2)cc2c(=O)n3ccccc3nc2n1CCc1ccccc1,> 11 µM (inactive)
4,OCCOc1ccc(C2=NCCO2)cc1,> 11 µM (inactive)
5,Nc1nc(Sc2ccc([N+](=O)[O-])cc2[N+](=O)[O-])n[nH]1,> 11 µM (inactive)
6,Cc1ccc(C(=O)N/C(=C\c2ccc(-c3ccccc3[N+](=O)[O-])o2)C(=O)NCCCN(C)C)cc1,> 11 µM (inactive)
7,COc1ccc(C(=O)N=c2c(C#N)cc3c(=O)n4cccc(C)c4nc3n2Cc2ccco2)cc1,> 11 µM (inactive)
8,NS(=O)(=O)c1ccc(NC(=S)NNC(=O)CCC(=O)Nc2ccccc2Cl)cc1,> 11 µM (inactive)
9,Cn1c(O)c(/C=C2\C=Nc3ccc(Br)cc32)c(=O)n(C)c1=O,> 11 µM (inactive)
10,Cc1ccc(N2C(=O)NC(=O)/C(=C\c3cc(C)n(-c4cc(C(=O)O)cc(C(=O)O)c4)c3C)C2=O)cc1,> 11 µM (inactive)
11,COc1ccc2c(-c3ccccc3)cc(SCC(N)=O)nc2c1,> 11 µM (inactive)
12,CCCCCN1C=CC=C/C1=C\C=C(C#N)C#N,> 11 µM (inactive)
13,O=C1CSC(=S)N1/N=C/c1ccc(Cl)c([N+](=O)[O-])c1,> 11 µM (inactive)
14,CSCC(C)N1CCC(n2nccc2NC(=O)CCCc2ccccc2)CC1 (stereo not drawn),> 11 µM (inactive)
15,COc1cc(NC(=O)CSc2nnc3ccc(-c4ccncc4)nn23)cc(OC)c1,> 11 µM (inactive)
16,COc1ccc(OC)c(C2Nc3c(Cl)ccc(C(=O)O)c3C3C=CCC32)c1 (stereo not drawn),> 11 µM (inactive)
17,CCc1ccc(/C=C2\SC(=S)N(CCCC(=O)Nc3ccccn3)C2=O)cc1,> 11 µM (inactive)
18,CN(C)S(=O)(=O)c1cccc(NC(=S)N/N=C/c2ccc(O)c(O)c2O)c1,> 11 µM (inactive)
19,CN1C(=O)S/C(=C/c2cccn2-c2cccc(C(=O)O)c2)C1=O,> 11 µM (inactive)
20,CN(C)CCCN1C(=O)c2cccc3c(Br)ccc(c23)C1=O,> 11 µM (inactive)
21,Cc1nc2cc(N)ccc2n1C1CCCCC1,> 11 µM (inactive)
22,CCOc1ccc2ccccc2c1C1NC(=O)N(C)C(C)=C1C(=O)OCCOC (stereo not drawn),> 11 µM (inactive)
23,CCCNC(=O)c1ccc2c(=O)c(O)c(-c3cccc(Br)c3)[nH]c2c1,> 11 µM (inactive)
24,CCOC(=O)Cn1c(=O)c(-c2cc(Br)ccc2N)nc2ccccc21,> 11 µM (inactive)

row,SMILES,EC50
1,COc1cc(OC)c(C2C(C#N)=C(N)OC3=C2C(=O)CC(C)(C)C3)cc1OC (stereo not drawn),> 11 µM (inactive)
2,CCN(CC)C(=O)Cn1cc(/C=C2\C(=O)NC(=O)N(c3ccccc3F)C2=O)c2ccccc21,> 11 µM (inactive)
3,C=CCn1cc(C=C2C(=O)NC(=O)NC2=O)c2ccccc21,> 11 µM (inactive)
4,O=C(Nc1ccccc1F)c1coc(=O)c(Br)c1,> 11 µM (inactive)
5,O=C1C=C(O)c2c(O)cc(O)c(O)c2C1=O,> 11 µM (inactive)
6,O=C(O)c1cc(-c2ccc(/C=N/Nc3ccc([N+](=O)[O-])cn3)o2)ccc1Cl,> 11 µM (inactive)
7,O=c1[nH]c(=O)n(-c2cccc(F)c2)c(O)c1/C=C1\C=Nc2ccccc21,> 11 µM (inactive)
8,COc1cc2c(cc1OC)-c1c(OC)c(OC)c(OC)c3ccnc(c13)C2=O,> 11 µM (inactive)
9,COc1ccc(OC)c(S(=O)(=O)Nc2ccc(O)c(Sc3ncn[nH]3)c2)c1,> 11 µM (inactive)
10,CC1=CC(C#N)(C#N)C(C#N)(C#N)C(c2ccccc2)N1 (stereo not drawn),> 11 µM (inactive)
11,Cc1ccc(C)c(N2CCN(C(=O)c3cc4ccccn4n3)CC2)c1,> 11 µM (inactive)
12,CC1=NN(C(N)=S)C(=O)C1N=Nc1ccc(S(N)(=O)=O)cc1 (stereo not drawn),> 11 µM (inactive)
13,O=c1[nH]c2ccc([N+](=O)[O-])cc2nc1/C=C(\O)c1ccccc1,> 11 µM (inactive)
14,CC(=O)Nc1ccc(S(=O)(=O)NCc2nc(-c3cccc(C)c3)no2)cc1,> 11 µM (inactive)
15,Cc1sc(-n2c(C)cc(C=C3C(=O)NC(=O)NC3=O)c2C)c(C#N)c1C,> 11 µM (inactive)
16,Cc1cccn2c(=O)c3cc(C(=O)NCc4ccco4)c(=N)n(C(C)C)c3nc12,> 11 µM (inactive)
17,Cc1ccc(/C(O)=C/c2nc3cc(C)ccc3oc2=O)cc1,> 11 µM (inactive)
18,Nc1ccc(S(=O)(=O)NNC(=O)C(=O)NNc2ccccn2)cc1,> 11 µM (inactive)
19,Cc1cc(/C=C2\C(=O)NC(=O)N(c3cccc(F)c3)C2=O)c(C)n1-c1ccc(C(=O)O)c(Cl)c1,> 11 µM (inactive)
20,Cc1cc(/C=C2/C(=O)NC(=O)N(Cc3ccco3)C2=O)c(C)n1-c1ccc(C(=O)O)cc1,> 11 µM (inactive)
21,COc1ccc(N=C(C)c2sc3ccccc3c2O)cc1,> 11 µM (inactive)
22,CCCNS(=O)(=O)c1ccc(CCC(=O)NCc2ccc3c(c2)OCO3)cc1,> 11 µM (inactive)
23,CCCCOc1c(Br)cc(/C=N/O)cc1OCC,> 11 µM (inactive)
24,CCCCn1c(O)c(C(=O)/C=C/c2ccc3c(c2)OCO3)c(=O)[nH]c1=O,> 11 µM (inactive)

row,SMILES,EC50
1,N#CC1=C(N)OC2=C(C(=O)CCC2)C12C(=O)N1CCCc3cccc2c31 (stereo not drawn),> 11 µM (inactive)
2,Cn1c(O)c(C=Nc2ccc(N3CCOCC3)cc2)c(=O)n(C)c1=S,> 11 µM (inactive)
3,O=C(c1cccs1)c1ccc(-c2cccs2)s1,> 11 µM (inactive)
4,Cc1cc(/C=c2\sc3nc4ccccc4n3c2=O)c(C)n1-c1ccc(C(=O)O)cc1,> 11 µM (inactive)
5,CCN(CC)c1ccc(N=Cc2c(O)n(-c3ccccc3)c(=O)[nH]c2=O)cc1,> 11 µM (inactive)
6,Cc1cc(C)c2c(c1)NC(c1cc3c(cc1Br)OCO3)C1CC=CC21 (stereo not drawn),> 11 µM (inactive)
7,Cc1ccccc1NC(=O)/C(C#N)=C/c1ccc(-c2ccc(Cl)c(C(=O)O)c2)o1,> 11 µM (inactive)
8,Cc1cc2nc3ccc(=[N+](C)C)cc-3sc2cc1N,> 11 µM (inactive)
9,CCOC(=O)c1cc2c(=O)n3ccccc3nc2n(C(C)C)c1=NC(=O)c1ccncc1,> 11 µM (inactive)
10,C[C@H]1c2cccc(O)c2C(O)=C2C(=O)[C@]3(O)C(O)=C(C(N)=O)C(=O)[C@@H](N(C)C)C3[C@@H](O)C21 (stereo partly drawn),4.58 µM
11,O=C(NNC(=O)c1ccccc1[N+](=O)[O-])c1csc(N2CCOCC2)n1,> 11 µM (inactive)
12,O=C(O)Cc1ccc(O)c(O)c1,> 11 µM (inactive)
13,CCOc1cc(C2C(C#N)=C(N)OC(C)=C2C(C)=O)cc(Br)c1O (stereo not drawn),> 11 µM (inactive)
14,COC(=O)CCCC1=CC2=CC(=O)C(C)(OC(=O)CCc3ccccc3)C(=O)C2=CO1 (stereo not drawn),> 11 µM (inactive)
15,O=C(NCCOc1ccccc1)C1Nc2ccc(OC(F)(F)F)cc2C2C=CCC12 (stereo not drawn),> 11 µM (inactive)
16,COc1ccc(N2C(=O)/C(=C/c3ccc(N(C)C)o3)C(=O)NC2=S)cc1,> 11 µM (inactive)
17,CN(C)c1ccc(N=Cc2nc(-c3ccccc3)oc2O)cc1,> 11 µM (inactive)
18,CCN(CC)c1nc(-c2nn[nH]n2)nc(N(CC)CC)n1,> 11 µM (inactive)
19,Cc1c(C(=O)O)cccc1-n1c(C)cc(/C=N/NC(=O)c2cc3ccccc3o2)c1C,> 11 µM (inactive)
20,Cc1cc(C(=O)O)ccc1-n1c(C)cc(/C=C2\SC(=O)NC2=O)c1C,> 11 µM (inactive)
21,CCCCNC(=S)NNC(=O)c1cc(C)on1,> 11 µM (inactive)
22,N#CC1=C(N)OC2=C(C(=O)CC(c3ccccc3)C2)C1c1ccc2c(c1)OCO2 (stereo not drawn),> 11 µM (inactive)
23,CC(=NCCN1CCCCC1)c1c(O)n(-c2ccc(Cl)cc2)c(=O)[nH]c1=O,> 11 µM (inactive)
24,CCN1/C(=C2/SC(=S)N(NC(C)=O)C2=O)Sc2ccccc21,> 11 µM (inactive)

row,SMILES,EC50
1,CCc1ccc(NC(=O)/C(C#N)=C/c2cc3ccc(C)cc3nc2N2CCOCC2)cc1,> 11 µM (inactive)
2,CCCCOC(=O)c1ccc(N=Nc2c(C)c(C#N)c(O)[nH]c2=O)cc1,> 11 µM (inactive)
3,O=c1[nH]c(/C=C\c2ccc(O)c(O)c2)nc(O)c1[N+](=O)[O-],> 11 µM (inactive)
4,Cc1ccc(S(=O)(=O)/N=C2\C=C(Nc3cccc(C(=O)O)c3)C(=O)c3ccccc32)c(C)c1,> 11 µM (inactive)
5,CCOC(=O)C1=C(C)N=c2s/c(=C/c3ccc(OCC(=O)O)cc3)c(=O)n2C1c1ccc(OC)cc1OC (stereo not drawn),> 11 µM (inactive)
6,CCCN1C(=O)/C(=C/c2ccc(C)o2)SC1=Nc1ccc(OC)cc1,> 11 µM (inactive)
7,COc1ccc(C2C(C#N)=C(N)OC3=C2C(=O)CC(C)(C)C3)cc1OC (stereo not drawn),> 11 µM (inactive)
8,Oc1ccc(CCNc2c3ccccc3nc3ccccc23)cc1O,> 11 µM (inactive)
9,Cc1ccc(-c2ccc(CCC(=O)O)n2-c2ccc(C(=O)O)cc2)cc1,> 11 µM (inactive)
10,O=[N+]([O-])c1cc(-c2ccc(/C=N/n3cnnc3)o2)ccc1Cl,> 11 µM (inactive)
11,COc1ccc(CCNC(=O)c2nn(C)c3c2CS(=O)(=O)c2ccccc2-3)cc1OC,> 11 µM (inactive)
12,CN1c2ccc(C=O)c3c(C=O)ccc(c23)N(C)C1(C)C,> 11 µM (inactive)
13,NC(=Nc1ccc(N)cc1)C(N)=Nc1ccc(N)cc1,> 11 µM (inactive)
14,COc1cc2c(cc1C1C(C#N)=C(N)OC3=C1C(=O)CC(C)(C)C3)OCO2 (stereo not drawn),> 11 µM (inactive)
15,Oc1c(Br)cc(Br)c(/C=N/n2c(-c3ccccc3)n[nH]c2=S)c1Br,> 11 µM (inactive)
16,CCc1c(C)nc(SCC(=O)c2cccs2)c(C#N)c1C,> 11 µM (inactive)
17,COc1ccc(N2C(=O)NC(=O)/C(=C\c3cn(CC(=O)N4CCOCC4)c4ccccc34)C2=O)c(OC)c1,> 11 µM (inactive)
18,COc1ccc(/C=N/N=C2/CC(C)(C)Cc3n[nH]c(=O)cc32)cc1,> 11 µM (inactive)
19,Cc1ncc(CO)c(/C=N/NC(=O)c2cc(O)c(O)c(O)c2)c1O,> 11 µM (inactive)
20,CCCn1nc(C(=O)Nc2ccc(S(=O)(=O)Nc3nccs3)cc2)c2ccccc2c1=O,> 11 µM (inactive)
21,COc1ccc(NC(=O)CN2CCC(NC(=O)C3CCCCC3)CC2)c([N+](=O)[O-])c1,> 11 µM (inactive)
